This experiment addresses T1, Aspergillus niger beta-glucosidase, wild type, yEdQ745-BG (CAB75696.1, SEQ ID NO:2) (Aspergillus niger, UniProt Q9P8F4).
T1 construct: strain yEdQ745
T1 sequence (Q9P8F4 20-860): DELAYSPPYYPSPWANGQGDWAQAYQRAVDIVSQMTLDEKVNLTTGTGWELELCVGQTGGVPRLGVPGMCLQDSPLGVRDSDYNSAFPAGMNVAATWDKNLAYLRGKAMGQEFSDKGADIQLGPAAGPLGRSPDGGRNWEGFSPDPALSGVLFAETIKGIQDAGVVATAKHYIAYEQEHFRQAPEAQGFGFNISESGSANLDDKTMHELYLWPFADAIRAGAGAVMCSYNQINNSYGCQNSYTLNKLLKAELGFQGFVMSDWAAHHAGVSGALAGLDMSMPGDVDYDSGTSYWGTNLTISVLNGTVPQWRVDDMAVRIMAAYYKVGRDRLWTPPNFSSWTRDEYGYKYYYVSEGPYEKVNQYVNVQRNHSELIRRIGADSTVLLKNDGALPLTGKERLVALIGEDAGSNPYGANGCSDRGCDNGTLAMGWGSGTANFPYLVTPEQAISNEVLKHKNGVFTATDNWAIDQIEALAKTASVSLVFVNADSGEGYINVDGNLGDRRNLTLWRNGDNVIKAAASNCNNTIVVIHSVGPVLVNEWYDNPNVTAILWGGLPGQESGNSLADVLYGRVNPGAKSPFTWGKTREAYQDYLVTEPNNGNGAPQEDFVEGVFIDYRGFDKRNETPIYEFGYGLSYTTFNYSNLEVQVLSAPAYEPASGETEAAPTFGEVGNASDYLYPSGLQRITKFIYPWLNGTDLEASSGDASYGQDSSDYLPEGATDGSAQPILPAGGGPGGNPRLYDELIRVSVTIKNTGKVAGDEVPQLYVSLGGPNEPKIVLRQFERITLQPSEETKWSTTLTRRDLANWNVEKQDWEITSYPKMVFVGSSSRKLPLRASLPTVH
Put plainly: BG kinetics, cellobiose hydrolysis assay (HPLC) with glucose as competitive inhibitor, yEdQ745-BG. The class given is biochemical. The text has this: Accordingly, in some embodiments, the unmodified form of the beta-glucosidase is a wild-type or a naturally occurring beta-glucosidase, such as, for example, a fungal beta-glucosidase. The full nucleic acid and amino acid sequence for numerous fungal beta-glucosidases are available. The amino acid sequence of A. niger beta-glucosidase is provided as SEQ ID NO:2. Thus, in some embodiments, the unmodified beta-glucosidase is from an Aspergillus species. In some embodiments, the unmodified beta-glucosidase is from a Trichoderma species.
The beta-glucosidase (BG) gene from Aspergillus niger (Accession #CAB75696.1) was integrated into the TR3 yeast background at the T4U3 genomic site.
The BG-expressing strains were subsequently used in corn mash and corn stover simultaneous saccharification and fermentation (SSF) studies using flask scale and pilot plant fermentations. A 12-gallon corn stover fermentation was performed at 40° C. in which the beta-glucosidase secreting yeast strain was co-inoculated with three other engineered yeast strains individually expressing endoglucanase II, CBH1, and CBHII. Surviving TR3 Saccharomyces cerevisiae yeast strains individually expressing BG, EGII, CBH1 or CBH2 were recovered by plating onto solid medium. A clonal population of BG-secreting yeast was isolated and the BG gene integration confirmed. […]

SMILES strings stand for the structures.

The values that follow come from patent publication US10077436B2, “Beta-glucosidase enzymes for increased biomass saccharification” (Edeniq, Inc., priority 2013, dated 2018).

With `OC[C@H]1OC(O)[C@H](O)[C@@H](O)[C@@H]1O` (some centres unmarked) [glucose], the inhibition constant (Ki) came to 1560 ± 290 µM. Besides, where the note is “inhibitor influence, Km for cellobiose / Ki for glucose, pH 4.8, 50° C.”, the Km/Ki was 0.93.

A word on the Ki: it is the equilibrium dissociation constant of an inhibitor or competing ligand from its target.
